Test system: 885724-159-R-J1-PDC complex spheroid viability
Assay: Anticancer human tumor 885724-159-R-J1-PDC patient-derived pancreatic adenocarcinoma cell line growth inhibition [POLQ]
Conditions: for IC50: curve of first compound; for viability, T/C: stronger effect = lower value
Experimental: Multicellular complex tumor spheroid response to Polymerase (POL) inhibitors (novobiocin, ART-558, RP6685) in combination with a variety of drugs and investigational agents in selected tumor cell lines
The POL inhibitors (novobiocin, ART-558, and RP6685) were evaluated both individually and in combination with standard of care and investigational anticancer small molecules within a complex spheroid model of solid tumors. . Complex spheroids include a stromal component modeled by human endothelial cells (HUVEC) and fibroblasts modeled by human mesenchymal stem cells (MSCs). The concentration ranges selected for each drug and investigational agent were based upon clinically achievable concentrations if the clinical Cmax of the agent was known.
Compounds. The drugs and investigational agents: novobiocin (NSC847541), ART-558 (NSC835418), RP-6685 (NSC848927), peposertib (NSC802822), ceralasertib (NSC780249), elimusertib (NSC800525), camonsertib (NSC841442), AZD-1390 (NSC803789), olaparib (NSC753686), talazoparib (NSC767125), rucaparib (NSC756644), sotorasib (NSC818433), MRTX-1133 (NSC836407), SN-38 (NSC673596), topotecan (NSC609699), epotoside (NSC141540), doxorubicin (NSC123127), gemcitabine (NSC613327), 5-fluorouracil (NSC19893), paclitaxel (NSC125973), vemurafenib (NSC761431), MSA-2 (NSC828583), SN-011 (NSC837082), adavosertib (NSC754352), prexasertib (NSC758257), carboplatin (NSC241240) and oxaliplatin (NSC266046), were obtained from the National Cancer Institute (NCI) Developmental Therapeutics Program Chemical Repository (21). The FDA-approved anticancer drug set is available from the Developmental Therapeutics Program at https://dtp.cancer.gov/organization/dscb/obtaining/. […] The stock solutions were prepared in dimethyl sulfoxide (DMSO, Sigma-Aldrich, St. Louis, MO, cat. D2650), except for the platinum compounds which were prepared in saline (Quality Biological, Gaithersburg, MD, cat. 114-055-101), at 800-fold the tested concentration and stored at -70 degrees C prior to their use. All drugs and investigational agents were tested over a range starting from a high concentration at or near the clinical Cmax and decreasing in half-log increments. If the clinical Cmax for an agent had not been determined, the highest concentration tested was 10 microM, except for SN-38, which was tested at a high concentration of 1 microM.
Cell Culture. All cells were maintained in an incubator at 37 degrees C and 5% CO2 with 95% humidity. The PDC lines were cultured according to standard operating procedures established by the NCI PDMR (https://pdmr.cancer.gov). Table 3 of the manuscript, lists the cell lines along with the number of the three cell types plated to form the mct-spheroids and media for tumor cell growth. After thawing, all PDC lines, except 997537-175-T-J1-PDC and 415267-285-R-J2-PDC, were cultured in Matrigel-coated flasks prepared with a working solution of 1X Ham's F-12 nutrient mix, without supplementation (Thermo Fisher Scientific, cat. 11765054), 100 U/mL penicillin-streptomycin (Thermo Fisher Scientific, cat. 15140122), and 2.5% Matrigel (Corning Inc., Corning, NY, cat. 354248) for the first three passages. The two PDC lines 997537-175-T-J1-PDC and 415267-285-R-J2-PDC were cultured on uncoated flasks. The 857933-349-R-J2-PDC line was cultured in 6C/Colon 1B media containing advanced DMEM/F-12 (Thermo Fisher Scientific, cat. 12634028), 10 mM HEPES (Thermo Fisher Scientific, cat. 15630080), 1X GlutaMAX supplement (Thermo Fisher Scientific, cat. 35050061), 0.1 mg/mL primocin (InvivoGen, San Diego, CA, cat. ant-pm-2), 10% defined fetal bovine serum, heat inactivated (HyClone Laboratories Inc., Logan, UT, cat. SH30070.03HI), 50% L-WRN conditioned media (ATCC, cat. CRL-3276), 1.25 mM N-Acetyl-L-cysteine (Sigma-Aldrich, cat. A9165), 10 mM nicotinamide (Sigma-Aldrich, cat. N0636), 1X B-27 supplement (Thermo Fisher Scientific, cat. 17504044), 1X N-2 supplement (Thermo Fisher Scientific, cat. […]

[1] = second compound 0.0316 µM, first compound 0.0316 µM
[2] = second compound 0.0316 µM, first compound 0.1 µM
[3] = second compound 0.1 µM, first compound 0.0316 µM
[4] = second compound 0.1 µM, first compound 0.1 µM
[5] = second compound 0.316 µM, first compound 0.0316 µM
[6] = second compound 0.316 µM, first compound 0.1 µM
[7] = second compound 1 µM, first compound 0.0316 µM
[8] = second compound 1 µM, first compound 0.1 µM
[9] = second compound 3.16 µM, first compound 0.0316 µM
[10] = second compound 3.16 µM, first compound 0.1 µM
[11] = second compound 10 µM, first compound 0.0316 µM
[12] = second compound 10 µM, first compound 0.1 µM
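Note: spheroids exposed to compounds for 7 days.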

Compound: CC1COCCN1c1cc(C2(O)CC3CCC(C2)O3)c2cnn(-c3ccn[nH]3)c2n1 (centres undefined) + Nc1ccc(C#CCN(C(=O)Cc2ncc(C(F)(F)F)cc2C(F)(F)F)c2ccc(F)cc2)nn1
- IC50 (second compound 0.0316 µM): 321 nM
- IC50 (second compound 0.1 µM): 237 nM
- IC50 (second compound 0.316 µM): 177 nM
- IC50 (second compound 1 µM): 237 nM
- IC50 (second compound 3.16 µM): 202 nM
- IC50 (second compound 10 µM): 236 nM
- viability, T/C [1]: 72.7%
- viability, T/C [2]: 54.7%
- viability, T/C (second compound 0.0316 µM, first compound 0.316 µM): 50.8%
- viability, T/C (second compound 0.0316 µM, first compound 1 µM): 42.6%
- viability, T/C (second compound 0.0316 µM, first compound 3.16 µM): 36.3%
- viability, T/C (second compound 0.0316 µM, first compound 10 µM): 26.8%
- viability, T/C [3]: 77.8%
- viability, T/C [4]: 58.3%
- viability, T/C (second compound 0.1 µM, first compound 0.316 µM): 46.2%
- viability, T/C (second compound 0.1 µM, first compound 1 µM): 40.6%
- viability, T/C (second compound 0.1 µM, first compound 3.16 µM): 37.4%
- viability, T/C (second compound 0.1 µM, first compound 10 µM): 31.4%
- viability, T/C [5]: 72.4%
- viability, T/C [6]: 52.5%
- viability, T/C (second compound 0.316 µM, first compound 0.316 µM): 45.2%
- viability, T/C (second compound 0.316 µM, first compound 1 µM): 38.9%
- viability, T/C (second compound 0.316 µM, first compound 3.16 µM): 39.9%
- viability, T/C (second compound 0.316 µM, first compound 10 µM): 28.4%
- viability, T/C [7]: 65.2%
- viability, T/C [8]: 51.5%
- viability, T/C (second compound 1 µM, first compound 0.316 µM): 47.7%
- viability, T/C (second compound 1 µM, first compound 1 µM): 43.6%
- viability, T/C (second compound 1 µM, first compound 3.16 µM): 35.9%
- viability, T/C (second compound 1 µM, first compound 10 µM): 27%
- viability, T/C [9]: 67%
- viability, T/C [10]: 53%
- viability, T/C (second compound 3.16 µM, first compound 0.316 µM): 45.4%
- viability, T/C (second compound 3.16 µM, first compound 1 µM): 43.5%
- viability, T/C (second compound 3.16 µM, first compound 3.16 µM): 35.3%
- viability, T/C (second compound 3.16 µM, first compound 10 µM): 30.4%
- viability, T/C [11]: 62.9%
- viability, T/C [12]: 53%
- viability, T/C (second compound 10 µM, first compound 0.316 µM): 49.4%
- viability, T/C (second compound 10 µM, first compound 1 µM): 41.8%
- viability, T/C (second compound 10 µM, first compound 3.16 µM): 37%
- viability, T/C (second compound 10 µM, first compound 10 µM): 30.5%

Compound: Cn1ncnc1[C@H]1c2n[nH]c(=O)c3cc(F)cc(c23)N[C@@H]1c1ccc(F)cc1 + Nc1ccc(C#CCN(C(=O)Cc2ncc(C(F)(F)F)cc2C(F)(F)F)c2ccc(F)cc2)nn1
- IC50 (second compound 0.0316 µM): > 100 nM
- IC50 (second compound 0.1 µM): > 100 nM
- IC50 (second compound 0.316 µM): > 100 nM
- IC50 (second compound 1 µM): > 100 nM
- IC50 (second compound 3.16 µM): > 100 nM
- IC50 (second compound 10 µM): > 100 nM
- viability, T/C (second compound 0.0316 µM, first compound 0.000316 µM): 95.1%
- viability, T/C (second compound 0.0316 µM, first compound 0.001 µM): 86.4%
- viability, T/C (second compound 0.0316 µM, first compound 0.00316 µM): 90.3%
- viability, T/C (second compound 0.0316 µM, first compound 0.01 µM): 90.7%
- viability, T/C [1]: 88.1%
- viability, T/C [2]: 86.8%
- viability, T/C (second compound 0.1 µM, first compound 0.000316 µM): 104%
- viability, T/C (second compound 0.1 µM, first compound 0.001 µM): 86.5%
- viability, T/C (second compound 0.1 µM, first compound 0.00316 µM): 90.1%
- viability, T/C (second compound 0.1 µM, first compound 0.01 µM): 88.1%
- viability, T/C [3]: 93.1%
- viability, T/C [4]: 80.4%
- viability, T/C (second compound 0.316 µM, first compound 0.000316 µM): 99.9%
- viability, T/C (second compound 0.316 µM, first compound 0.001 µM): 94.1%
- viability, T/C (second compound 0.316 µM, first compound 0.00316 µM): 89.8%
- viability, T/C (second compound 0.316 µM, first compound 0.01 µM): 84.8%
- viability, T/C [5]: 87.4%
- viability, T/C [6]: 75.7%
- viability, T/C (second compound 1 µM, first compound 0.000316 µM): 99.2%
- viability, T/C (second compound 1 µM, first compound 0.001 µM): 88%
- viability, T/C (second compound 1 µM, first compound 0.00316 µM): 89.5%
- viability, T/C (second compound 1 µM, first compound 0.01 µM): 95%
- viability, T/C [7]: 92.2%
- viability, T/C [8]: 81.7%
- viability, T/C (second compound 3.16 µM, first compound 0.000316 µM): 97.8%
- viability, T/C (second compound 3.16 µM, first compound 0.001 µM): 88%
- viability, T/C (second compound 3.16 µM, first compound 0.00316 µM): 90%
- viability, T/C (second compound 3.16 µM, first compound 0.01 µM): 87%
- viability, T/C [9]: 83.9%
- viability, T/C [10]: 83.7%
- viability, T/C (second compound 10 µM, first compound 0.000316 µM): 105%
- viability, T/C (second compound 10 µM, first compound 0.001 µM): 92.1%
- viability, T/C (second compound 10 µM, first compound 0.00316 µM): 96.1%
- viability, T/C (second compound 10 µM, first compound 0.01 µM): 92.2%
- viability, T/C [11]: 92.4%
- viability, T/C [12]: 84%
